From patent publication US20080194642A1, “HIGH DOSE, LONG-ACTING ECTOPARASITICIDE FOR EXTENDED CONTROL” (Wyeth, priority 2007, published 2008)

How the values were obtained:
[1] = tested on: cat flea, Ctenocephalides felis; assay: Duration of control in dogs treated with ectoparasiticides at up to 3x the conventional dose against the cat flea (Example 6); assay type: in vivo
Text: In this evaluation, 32 mixed breed male or female dogs, aged 1 to 10 years, were used. Dogs were not treated with an ectoparasiticide for 60 days prior to the study. No drugs, baths, shampoos or pesticides were given to the dogs during the preconditioning phase or during the course of the study other than what is described in the protocol. At least 36 dogs were preconditioned for 14 days. All dogs were bathed with noninsecticidal shampoo (Day −12 to −8). On Day −7, each dog was infested with 100 unfed cat fleas, Ctenocephalides felis. On Day −5, each dog was thoroughly examined and then combed to remove and count fleas. Dogs were selected for inclusion in the study on the basis of flea retention and/or behavior. The 32 dogs with the highest flea counts were selected for the study, except for exclusion of dogs deemed not easily handled. The dogs were blocked by flea number retained, and randomly allocated within blocks into 8 groups of 4 dogs.
Applications for Groups B-H were administered using disposable syringes. Each dog received a spot of the appropriate formulation to the skin (by syringe without a needle) at the dorsal midline between the shoulder blades. Group A was left untreated. […] Observations for post-treatment adverse reactions, skin irritation and behavior of test formulations were made at four hours following administration of treatments. Thereafter, dogs were observed once daily on Days 1-14 for formulation acceptability, adverse reactions, or signs of skin irritation following treatment. Daily observations of the physical condition of the animals were made throughout the trial.
Dogs were infested with 100 adult cat fleas, Ctenocephalides felis, on Day 14 and then examined for live fleas on Day 16. The dogs were re-infested/examined on Days 28/30, 56/58, 70/72, 84/86 and then infested and examined again at 2 week intervals until efficacy waned. At each infestation, 100 unfed adult fleas were applied along the lateral midline of each dog. The negative control group (Group A) was infested before the test compound groups. Fleas were recovered by examining and combing the groups in the same order. Combs were washed and rinsed with alcohol between dogs. Plastic gloves and aprons were changed between treatment groups.
(§1) Flea counts were transformed by log (count +1), and geometric means were used to calculate percent efficacy for the treatments using (Yc−Yt)/Yc*100, where Yc and Yt equal mean counts for control and treated groups, respectively.

[2] = tested on: cat flea, Ctenocephalides felis; assay: Duration of efficacy of high doses of ectoparasiticides against the cat flea in cats (Example 5); assay type: in vivo
Text: In this evaluation, 32 domestic shorthair cats of mixed sex, aged at least 6 months, were used to test the high doses of ectoparasiticides disclosed herein. Cats were free of ectoparasiticide treatment for 60 days prior to administration of the experimental treatments. No drugs, baths, shampoos, or pesticides were given to the cats during the preconditioning phase or during the course of the study other than what is described in the protocol. At least 36 cats were preconditioned for 7 days. On day −7, each cat was infested with 100 unfed cat fleas, Ctenocephalides felis. On Day −5, each cat was thoroughly examined and combed to remove and count fleas. 32 cats were ranked in descending order by flea count. From the ranking, the cats were divided into four blocks of eight cats each. The eight cats within each of the four blocks were randomly allocated to treatment groups (A-H).
Applications for groups B-H were administered using a disposable syringe. The dose was applied as a single spot on the dorsal neck at the base of the skull. Group A was left untreated. […] On Days 1 through 14 following administration of the treatments, cats were observed daily for reactions and formulation acceptability. Thereafter, cats were observed once daily for the remainder of the study. Cats were infested with 100 adult cat fleas on Day 14 then examined for fleas on Day 16. The cats were re-infested and examined again on Days 28 and 30, on Days 56 and 58 then bi-weekly until efficacy waned. At each infestation, 100 unfed adult fleas were applied along the dorsal rump of each cat. The negative control group (Group A) was infested before the test compound groups. Fleas were recovered by examining and combing the groups in the same order. Combs were washed and rinsed with alcohol between cats, and latex gloves were changed between treatment groups.
as §1

[3] = 10 mg imidacloprid/kg spot-on, Day 16
[4] = 10 mg imidacloprid/kg spot-on, Day 30
[5] = 10 mg imidacloprid/kg spot-on, Day 58
[6] = 10 mg imidacloprid/kg spot-on, Day 72
[7] = 10 mg imidacloprid/kg spot-on, Day 86
[8] = 10 mg imidacloprid/kg spot-on, Day 100
[9] = 30 mg imidacloprid/kg spot-on, Day 16
[10] = 30 mg imidacloprid/kg spot-on, Day 30
[11] = 30 mg imidacloprid/kg spot-on, Day 58
[12] = 30 mg imidacloprid/kg spot-on, Day 72
[13] = 30 mg imidacloprid/kg spot-on, Day 86
[14] = 30 mg imidacloprid/kg spot-on, Day 100
[15] = 10 mg imidacloprid/kg (1×) spot-on, Day 16
[16] = 10 mg imidacloprid/kg (1×) spot-on, Day 30
[17] = 10 mg imidacloprid/kg (1×) spot-on, Day 58
[18] = 10 mg imidacloprid/kg (1×) spot-on, Day 72
[19] = 10 mg imidacloprid/kg (1×) spot-on, Day 86
[20] = 30 mg imidacloprid/kg (3×) spot-on, Day 16
[21] = 30 mg imidacloprid/kg (3×) spot-on, Day 30
[22] = 30 mg imidacloprid/kg (3×) spot-on, Day 58
[23] = 30 mg imidacloprid/kg (3×) spot-on, Day 72
[24] = 30 mg imidacloprid/kg (3×) spot-on, Day 86
[25] = 7.5 mg fipronil/kg spot-on, Day 16
[26] = 7.5 mg fipronil/kg spot-on, Day 30
[27] = 7.5 mg fipronil/kg spot-on, Day 58
[28] = 7.5 mg fipronil/kg spot-on, Day 72
[29] = 7.5 mg fipronil/kg spot-on, Day 86
[30] = 7.5 mg fipronil/kg spot-on, Day 100
[31] = 22.5 mg fipronil/kg spot-on, Day 16
[32] = 22.5 mg fipronil/kg spot-on, Day 30
[33] = 22.5 mg fipronil/kg spot-on, Day 58
[34] = 22.5 mg fipronil/kg spot-on, Day 72
[35] = 22.5 mg fipronil/kg spot-on, Day 86
[36] = 22.5 mg fipronil/kg spot-on, Day 100
[37] = 7 mg fipronil/kg (1×) spot-on, Day 16
[38] = 7 mg fipronil/kg (1×) spot-on, Day 30
[39] = 7 mg fipronil/kg (1×) spot-on, Day 58
[40] = 7 mg fipronil/kg (1×) spot-on, Day 72
[41] = 7 mg fipronil/kg (1×) spot-on, Day 86
[42] = 7 mg fipronil/kg (1×) spot-on, Day 100
[43] = 7 mg fipronil/kg (1×) spot-on, Day 114
[44] = 21 mg fipronil/kg (3×) spot-on, Day 16
[45] = 21 mg fipronil/kg (3×) spot-on, Day 30
[46] = 21 mg fipronil/kg (3×) spot-on, Day 58
[47] = 21 mg fipronil/kg (3×) spot-on, Day 72
[48] = 21 mg fipronil/kg (3×) spot-on, Day 86
[49] = 21 mg fipronil/kg (3×) spot-on, Day 100

In the case of N#Cc1ccc(CC(=NNC(=O)Nc2ccc(OC(F)(F)F)cc2)c2cccc(C(F)(F)F)c2)cc1 (mixture of isomers) [metaflumizone, (E,Z)-2-[2-(4-cyanophenyl)-1-[3-(trifluoromethyl)phenyl]ethylidene]-N-[4-(tri-fluoromethoxy)phenyl]hydrazinecarboxamide], the “% Efficacy” value ([1]; metaflumizone 60 mg/kg (3×) spot-on, Day 128) is reported as 96.5%.

For O=[N+]([O-])/N=C1\NCCN1Cc1ccc(Cl)nc1 [imidacloprid], the “% Efficacy” value [2, 3] was 100.0%, the “Flea comb count, G.M.” value [2, 3] was 0.0 and the “% Efficacy” value [2, 4] was 98.5%. The “Flea comb count, G.M.” value [2, 4] was 1.0, the “% Efficacy” value [2, 5] was 81.4% and the “Flea comb count, G.M.” value [2, 5] was 10.0. For the same compound, the “% Efficacy” value [2, 6] was 84.8%, the “Flea comb count, G.M.” value [2, 6] was 10.0 and the “% Efficacy” value [2, 7] was 71.1%. For the same compound, the “Flea comb count, G.M.” value [2, 7] was 16.7, the “% Efficacy” value [2, 8] was 43.5% and the “Flea comb count, G.M.” value [2, 8] was 33.3. For the same compound, the “% Efficacy” value [2, 9] was 100.0%, the “Flea comb count, G.M.” value [2, 9] was 0.0 and the “% Efficacy” value [2, 10] was 99.5%. The “Flea comb count, G.M.” value [2, 10] was 0.3, the “% Efficacy” value [2, 11] was 100.0% and the “Flea comb count, G.M.” value [2, 11] was 0.0. For the same compound, the “% Efficacy” value [2, 12] was 99.0%, the “Flea comb count, G.M.” value [2, 12] was 0.7 and the “% Efficacy” value [2, 13] was 96.0%. The “Flea comb count, G.M.” value [2, 13] was 2.3, the “% Efficacy” value [2, 14] was 91.4% and the “Flea comb count, G.M.” value [2, 14] was 5.1. The “% Efficacy” value [1, 15] was 100.0%, the “Flea Counts/Dog/Day (Geometric Means)” value [1, 15] was 0.0 and the “% Efficacy” value [1, 16] was 100.0%. For the same compound, the “Flea Counts/Dog/Day (Geometric Means)” value [1, 16] was 0.0, the “% Efficacy” value [1, 17] was 98.1% and the “Flea Counts/Dog/Day (Geometric Means)” value [1, 17] was 1.5. For the same compound, the “% Efficacy” value [1, 18] was 80.3%, the “Flea Counts/Dog/Day (Geometric Means)” value [1, 18] was 15.4 and the “% Efficacy” value [1, 19] was 88.9%. The “Flea Counts/Dog/Day (Geometric Means)” value [1, 19] was 9.7, the “% Efficacy” value ([1]; 10 mg imidacloprid/kg (1×) spot-on, Day 100) was 78.3% and the “% Efficacy” value ([1]; 10 mg imidacloprid/kg (1×) spot-on, Day 114) was 52.6%. The “% Efficacy” value [1, 20] was 100.0%, the “Flea Counts/Dog/Day (Geometric Means)” value [1, 20] was 0.0 and the “% Efficacy” value [1, 21] was 100.0%. For the same compound, the “Flea Counts/Dog/Day (Geometric Means)” value [1, 21] was 0.0, the “% Efficacy” value [1, 22] was 100.0% and the “Flea Counts/Dog/Day (Geometric Means)” value [1, 22] was 0.0. The “% Efficacy” value [1, 23] was 97.0%, the “Flea Counts/Dog/Day (Geometric Means)” value [1, 23] was 2.4 and the “% Efficacy” value [1, 24] was 96.4%. The “Flea Counts/Dog/Day (Geometric Means)” value [1, 24] was 3.1, the “% Efficacy” value ([1]; 30 mg imidacloprid/kg (3×) spot-on, Day 100) was 96.8% and the “% Efficacy” value ([1]; 30 mg imidacloprid/kg (3×) spot-on, Day 114) was 96.6%. The “% Efficacy” value ([1]; 30 mg imidacloprid/kg (3×) spot-on, Day 128) was 94.5%.

N#Cc1nn(-c2c(Cl)cc(C(F)(F)F)cc2Cl)c(N)c1[S+]([O-])C(F)(F)F (stereo not shown) [fipronil] was tested, and the “% Efficacy” value [2, 25] was 97.7%, the “Flea comb count, G.M.” value [2, 25] was 1.2 and the “% Efficacy” value [2, 26] was 96.4%. The “Flea comb count, G.M.” value [2, 26] was 2.3, the “% Efficacy” value [2, 27] was 78.8% and the “Flea comb count, G.M.” value [2, 27] was 11.5. The “% Efficacy” value [2, 28] was 81.1%, the “Flea comb count, G.M.” value [2, 28] was 12.5 and the “% Efficacy” value [2, 29] was 66.9%. For the same compound, the “Flea comb count, G.M.” value [2, 29] was 19.2, the “% Efficacy” value [2, 30] was 14.3% and the “Flea comb count, G.M.” value [2, 30] was 50.6. For the same compound, the “% Efficacy” value [2, 31] was 97.8%, the “Flea comb count, G.M.” value [2, 31] was 1.2 and the “% Efficacy” value [2, 32] was 100.0%. For the same compound, the “Flea comb count, G.M.” value [2, 32] was 0.0, the “% Efficacy” value [2, 33] was 93.8% and the “Flea comb count, G.M.” value [2, 33] was 3.4. The “% Efficacy” value [2, 34] was 94.7%, the “Flea comb count, G.M.” value [2, 34] was 3.5 and the “% Efficacy” value [2, 35] was 64.9%. For the same compound, the “Flea comb count, G.M.” value [2, 35] was 20.3, the “% Efficacy” value [2, 36] was 31.5% and the “Flea comb count, G.M.” value [2, 36] was 40.4. The “% Efficacy” value [1, 37] was 99.8%, the “Flea Counts/Dog/Day (Geometric Means)” value [1, 37] was 0.2 and the “% Efficacy” value [1, 38] was 99.8%. The “Flea Counts/Dog/Day (Geometric Means)” value [1, 38] was 0.2, the “% Efficacy” value [1, 39] was 100.0% and the “Flea Counts/Dog/Day (Geometric Means)” value [1, 39] was 0.0. The “% Efficacy” value [1, 40] was 96.9%, the “Flea Counts/Dog/Day (Geometric Means)” value [1, 40] was 2.4 and the “% Efficacy” value [1, 41] was 97.4%. For the same compound, the “Flea Counts/Dog/Day (Geometric Means)” value [1, 41] was 2.3, the “% Efficacy” value [1, 42] was 94.1% and the “Flea Counts/Dog/Day (Geometric Means)” value [1, 42] was 4.3. The “% Efficacy” value [1, 43] was 84.7%, the “Flea Counts/Dog/Day (Geometric Means)” value [1, 43] was 10.2 and the “% Efficacy” value [1, 44] was 100.0%. For the same compound, the “Flea Counts/Dog/Day (Geometric Means)” value [1, 44] was 0.0, the “% Efficacy” value [1, 45] was 100.0% and the “Flea Counts/Dog/Day (Geometric Means)” value [1, 45] was 0.0. The “% Efficacy” value [1, 46] was 90.7%, the “Flea Counts/Dog/Day (Geometric Means)” value [1, 46] was 7.5 and the “% Efficacy” value [1, 47] was 85.4%. The “Flea Counts/Dog/Day (Geometric Means)” value [1, 47] was 11.4, the “% Efficacy” value [1, 48] was 48.0% and the “Flea Counts/Dog/Day (Geometric Means)” value [1, 48] was 45.3. The “% Efficacy” value [1, 49] was 39.5% and the “Flea Counts/Dog/Day (Geometric Means)” value [1, 49] was 44.1.
